Reference: paper PMC4508061, “Selectivity Profiling and Biological Activity of Novel β-Carbolines as Potent and Selective DYRK1 Kinase Inhibitors” (PLoS ONE, 2015)

Experiments:
Assay in all cases: ProQinase radiometric kinase panel
Conditions in all cases: mean of 2 exp.
AMPK-alph1 = AMPK-alph1 (Homo sapiens, UniProt Q13131)
ASK1 = ASK1 (Homo sapiens, UniProt Q99683)
BLK = BLK (Homo sapiens, UniProt P51451)
CDC42BPA = CDC42BPA (Homo sapiens, UniProt Q5VT25)
CDK1/CycA2 = CDK1/CycA2 (Homo sapiens, UniProt P06493)
CHK1 = CHK1 (Homo sapiens, UniProt O14757)
Sequence of CHK1 (O14757 whole entry): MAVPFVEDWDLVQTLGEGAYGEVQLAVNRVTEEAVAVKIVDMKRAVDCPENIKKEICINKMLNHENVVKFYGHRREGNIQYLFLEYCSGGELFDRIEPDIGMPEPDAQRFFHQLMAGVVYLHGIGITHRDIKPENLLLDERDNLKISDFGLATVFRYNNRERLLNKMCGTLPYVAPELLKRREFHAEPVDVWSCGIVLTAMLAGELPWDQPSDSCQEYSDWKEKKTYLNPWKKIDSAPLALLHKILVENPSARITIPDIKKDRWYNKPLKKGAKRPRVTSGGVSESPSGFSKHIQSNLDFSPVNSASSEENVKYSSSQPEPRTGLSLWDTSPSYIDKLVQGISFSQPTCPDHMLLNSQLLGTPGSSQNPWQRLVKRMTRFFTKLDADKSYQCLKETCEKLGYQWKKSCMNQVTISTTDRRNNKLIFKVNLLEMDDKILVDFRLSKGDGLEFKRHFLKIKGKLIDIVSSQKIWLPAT

CK1-alpha1 = CK1-alpha1 (Homo sapiens, UniProt P48729)
CK2-alpha1 = CK2-alpha1 (Homo sapiens, UniProt P68400)
Sequence of CK2-alpha1 (P68400 whole entry): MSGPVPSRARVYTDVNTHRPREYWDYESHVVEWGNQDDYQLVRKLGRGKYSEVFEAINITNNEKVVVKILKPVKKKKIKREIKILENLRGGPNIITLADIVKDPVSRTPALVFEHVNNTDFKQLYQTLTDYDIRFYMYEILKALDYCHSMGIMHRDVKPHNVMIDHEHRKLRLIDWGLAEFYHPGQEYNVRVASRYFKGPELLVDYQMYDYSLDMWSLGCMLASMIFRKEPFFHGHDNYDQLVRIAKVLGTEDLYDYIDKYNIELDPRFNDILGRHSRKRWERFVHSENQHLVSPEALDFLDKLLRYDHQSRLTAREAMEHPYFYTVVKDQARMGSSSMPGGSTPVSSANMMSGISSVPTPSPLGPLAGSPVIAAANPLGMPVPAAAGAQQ

DAPK1 = DAPK1 (Homo sapiens, UniProt P53355)
DMPK = DMPK (Homo sapiens, UniProt Q09013)
EIF2AK2 = EIF2AK2 (Homo sapiens, UniProt P19525)
Sequence of EIF2AK2 (P19525 whole entry): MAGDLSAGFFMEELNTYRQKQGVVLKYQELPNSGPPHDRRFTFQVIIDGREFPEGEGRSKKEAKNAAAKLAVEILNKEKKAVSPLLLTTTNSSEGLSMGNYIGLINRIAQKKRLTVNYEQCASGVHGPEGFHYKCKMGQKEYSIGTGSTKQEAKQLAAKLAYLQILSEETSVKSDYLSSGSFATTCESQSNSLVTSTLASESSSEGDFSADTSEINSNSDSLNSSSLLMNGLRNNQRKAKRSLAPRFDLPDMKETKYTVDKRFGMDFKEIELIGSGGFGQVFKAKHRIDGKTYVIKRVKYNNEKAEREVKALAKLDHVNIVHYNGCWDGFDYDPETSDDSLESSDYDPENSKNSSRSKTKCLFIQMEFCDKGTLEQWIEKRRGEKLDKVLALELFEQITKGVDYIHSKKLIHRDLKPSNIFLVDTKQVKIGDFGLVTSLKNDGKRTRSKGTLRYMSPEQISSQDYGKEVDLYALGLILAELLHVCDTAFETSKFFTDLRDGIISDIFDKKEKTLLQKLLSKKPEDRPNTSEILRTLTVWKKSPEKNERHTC

EPHA2 = EPHA2 (Homo sapiens, UniProt P29317)
EPHB3 = EPHB3 (Homo sapiens, UniProt P54753)
EPHB4 = EPHB4 (Homo sapiens, UniProt P54760)
FAK = FAK (Homo sapiens, UniProt Q05397)
Sequence of FAK (Q05397 whole entry): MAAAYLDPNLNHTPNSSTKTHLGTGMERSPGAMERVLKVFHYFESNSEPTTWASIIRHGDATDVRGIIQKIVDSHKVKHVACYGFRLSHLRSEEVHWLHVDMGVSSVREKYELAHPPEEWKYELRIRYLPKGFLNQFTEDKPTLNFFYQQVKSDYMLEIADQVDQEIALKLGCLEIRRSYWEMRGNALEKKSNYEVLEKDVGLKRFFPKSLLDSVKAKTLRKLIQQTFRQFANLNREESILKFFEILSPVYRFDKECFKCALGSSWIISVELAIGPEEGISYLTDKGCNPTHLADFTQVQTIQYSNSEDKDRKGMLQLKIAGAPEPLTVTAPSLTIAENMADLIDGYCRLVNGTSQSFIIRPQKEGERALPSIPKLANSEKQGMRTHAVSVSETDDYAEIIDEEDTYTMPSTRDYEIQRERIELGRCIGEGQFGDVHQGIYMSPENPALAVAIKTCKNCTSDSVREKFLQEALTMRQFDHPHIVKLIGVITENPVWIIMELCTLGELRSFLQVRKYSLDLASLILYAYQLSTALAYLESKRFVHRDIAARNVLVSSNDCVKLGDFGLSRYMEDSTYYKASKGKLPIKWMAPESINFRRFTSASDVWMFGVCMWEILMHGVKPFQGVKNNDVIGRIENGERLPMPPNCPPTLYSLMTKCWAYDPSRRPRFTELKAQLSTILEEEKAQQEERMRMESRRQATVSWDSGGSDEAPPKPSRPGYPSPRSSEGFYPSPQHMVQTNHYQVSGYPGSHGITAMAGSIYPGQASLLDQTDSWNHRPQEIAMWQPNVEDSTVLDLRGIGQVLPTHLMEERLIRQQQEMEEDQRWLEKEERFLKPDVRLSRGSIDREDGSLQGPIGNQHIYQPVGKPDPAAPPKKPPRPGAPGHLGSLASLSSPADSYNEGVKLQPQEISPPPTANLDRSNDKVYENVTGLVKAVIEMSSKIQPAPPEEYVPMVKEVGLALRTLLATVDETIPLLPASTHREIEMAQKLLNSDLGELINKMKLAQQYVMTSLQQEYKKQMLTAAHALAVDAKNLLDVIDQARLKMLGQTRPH

FGF-R1 = FGF-R1 (Homo sapiens, UniProt P11362)
Sequence of FGF-R1 (P11362 22-822): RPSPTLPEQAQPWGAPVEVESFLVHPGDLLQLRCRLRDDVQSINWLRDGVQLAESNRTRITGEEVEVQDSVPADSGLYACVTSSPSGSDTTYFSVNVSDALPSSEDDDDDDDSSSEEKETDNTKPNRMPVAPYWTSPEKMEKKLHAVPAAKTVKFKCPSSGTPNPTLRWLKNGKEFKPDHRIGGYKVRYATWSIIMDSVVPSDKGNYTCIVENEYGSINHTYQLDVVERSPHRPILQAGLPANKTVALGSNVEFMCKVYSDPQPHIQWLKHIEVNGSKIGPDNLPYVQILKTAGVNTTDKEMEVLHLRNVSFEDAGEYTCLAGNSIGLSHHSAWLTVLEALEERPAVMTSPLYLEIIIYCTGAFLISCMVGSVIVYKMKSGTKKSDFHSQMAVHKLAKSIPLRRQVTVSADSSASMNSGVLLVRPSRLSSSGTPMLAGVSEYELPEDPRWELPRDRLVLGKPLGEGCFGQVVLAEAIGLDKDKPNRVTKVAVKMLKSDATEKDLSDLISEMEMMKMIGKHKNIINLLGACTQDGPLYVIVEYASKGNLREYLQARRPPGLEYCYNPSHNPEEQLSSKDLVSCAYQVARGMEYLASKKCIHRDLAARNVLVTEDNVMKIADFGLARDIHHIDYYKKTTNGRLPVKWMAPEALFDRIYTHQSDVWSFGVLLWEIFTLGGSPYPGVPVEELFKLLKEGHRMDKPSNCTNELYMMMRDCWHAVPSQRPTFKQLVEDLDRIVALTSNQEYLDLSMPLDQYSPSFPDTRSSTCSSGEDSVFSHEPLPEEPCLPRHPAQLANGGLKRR

FRK = FRK (Homo sapiens, UniProt P42685)
GRK7 = GRK7 (Homo sapiens, UniProt Q8WTQ7)
Sequence of GRK7 (Q8WTQ7 whole entry): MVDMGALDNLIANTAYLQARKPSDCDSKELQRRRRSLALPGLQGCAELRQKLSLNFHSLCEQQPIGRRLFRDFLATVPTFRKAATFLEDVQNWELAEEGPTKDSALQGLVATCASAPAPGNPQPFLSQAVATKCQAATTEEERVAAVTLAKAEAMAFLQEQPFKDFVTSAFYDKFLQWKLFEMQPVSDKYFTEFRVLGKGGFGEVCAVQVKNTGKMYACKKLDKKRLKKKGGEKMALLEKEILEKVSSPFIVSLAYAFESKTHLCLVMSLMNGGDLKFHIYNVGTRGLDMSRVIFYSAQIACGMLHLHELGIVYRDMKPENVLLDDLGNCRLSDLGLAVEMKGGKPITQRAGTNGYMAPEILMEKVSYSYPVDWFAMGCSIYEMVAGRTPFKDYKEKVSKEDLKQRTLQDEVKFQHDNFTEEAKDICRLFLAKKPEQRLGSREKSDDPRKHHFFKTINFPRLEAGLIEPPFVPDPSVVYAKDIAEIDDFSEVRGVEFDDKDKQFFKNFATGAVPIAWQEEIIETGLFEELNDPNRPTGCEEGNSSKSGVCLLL

MAPKAPK2 = MAPKAPK2 (Homo sapiens, UniProt P49137)
MARK3 = MARK3 (Homo sapiens, UniProt P27448)
MST2 = MST2 (Homo sapiens, UniProt Q13188)
NEK11 = NEK11 (Homo sapiens, UniProt Q8NG66)
Sequence of NEK11 (Q8NG66 whole entry): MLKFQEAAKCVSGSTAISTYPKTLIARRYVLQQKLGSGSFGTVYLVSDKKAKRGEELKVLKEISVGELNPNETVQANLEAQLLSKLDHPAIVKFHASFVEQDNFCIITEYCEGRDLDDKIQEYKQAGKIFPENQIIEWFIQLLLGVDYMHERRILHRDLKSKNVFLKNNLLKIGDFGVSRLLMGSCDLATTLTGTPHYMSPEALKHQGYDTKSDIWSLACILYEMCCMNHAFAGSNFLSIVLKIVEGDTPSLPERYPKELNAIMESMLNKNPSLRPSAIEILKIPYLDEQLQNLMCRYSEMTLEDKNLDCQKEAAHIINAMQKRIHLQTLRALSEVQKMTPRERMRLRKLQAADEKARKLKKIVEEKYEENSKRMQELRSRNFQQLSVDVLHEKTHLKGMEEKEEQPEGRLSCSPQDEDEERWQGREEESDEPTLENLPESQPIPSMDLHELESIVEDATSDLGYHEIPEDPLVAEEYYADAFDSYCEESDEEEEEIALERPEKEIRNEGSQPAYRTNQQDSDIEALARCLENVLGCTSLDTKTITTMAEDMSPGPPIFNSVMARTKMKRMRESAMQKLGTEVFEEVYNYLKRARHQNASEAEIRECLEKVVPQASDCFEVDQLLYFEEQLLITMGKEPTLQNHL

NEK7 = NEK7 (Homo sapiens, UniProt Q8TDX7)
PDK1 = PDK1 (Homo sapiens, UniProt O15530)
PIM3 = PIM3 (Homo sapiens, UniProt Q86V86)
PKC-epsilon = PKC-epsilon (Homo sapiens, UniProt Q02156)
PKC-mu = PKC-mu (Homo sapiens, UniProt Q15139)
PRK1 = PRK1 (Homo sapiens, UniProt Q16512)
RET = RET (Homo sapiens, UniProt P07949)
SNK = SNK (Homo sapiens, UniProt Q9NYY3)
SRMS = SRMS (Homo sapiens, UniProt Q9H3Y6)
SRPK1 = SRPK1 (Homo sapiens, UniProt Q96SB4)
STK25 = STK25 (Homo sapiens, UniProt O00506)
STK39 = STK39 (Homo sapiens, UniProt Q9UEW8)
TGFB-R2 = TGFB-R2 (Homo sapiens, UniProt P37173)
TSSK1 = TSSK1 (Homo sapiens, UniProt Q9BXA7)
TXK = TXK (Homo sapiens, UniProt P42681)
Sequence of TXK (P42681 whole entry): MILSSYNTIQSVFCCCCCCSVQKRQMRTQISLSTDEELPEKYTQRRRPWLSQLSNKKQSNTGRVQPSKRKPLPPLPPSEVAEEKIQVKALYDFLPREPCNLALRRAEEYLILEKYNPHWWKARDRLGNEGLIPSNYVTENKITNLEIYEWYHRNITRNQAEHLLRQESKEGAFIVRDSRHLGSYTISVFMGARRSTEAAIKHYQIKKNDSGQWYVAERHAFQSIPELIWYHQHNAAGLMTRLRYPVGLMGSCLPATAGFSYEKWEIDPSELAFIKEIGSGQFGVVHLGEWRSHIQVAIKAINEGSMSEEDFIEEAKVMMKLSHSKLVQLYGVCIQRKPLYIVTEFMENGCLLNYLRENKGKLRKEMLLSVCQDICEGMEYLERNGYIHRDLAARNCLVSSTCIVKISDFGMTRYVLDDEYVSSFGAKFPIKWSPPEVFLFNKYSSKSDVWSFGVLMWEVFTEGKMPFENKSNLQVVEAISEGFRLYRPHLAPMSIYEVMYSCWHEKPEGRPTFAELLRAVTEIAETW

WNK1 = WNK1 (Homo sapiens, UniProt Q9H4A3)
ZAP70 = ZAP70 (Homo sapiens, UniProt P43403)

- residual activity at 1 µM, Mean (AMPK-alph1): 92 % of control
- residual activity at 1 µM, Mean (ASK1): 104 % of control
- residual activity at 1 µM, Mean (BLK): 100 % of control
- residual activity at 1 µM, Mean (CDC42BPA): 76 % of control
- residual activity at 1 µM, Mean (CDK1/CycA2): 79 % of control
- residual activity at 1 µM, Mean (CHK1): 100 % of control
- residual activity at 1 µM, Mean (CK1-alpha1): 90 % of control
- residual activity at 1 µM, Mean (CK2-alpha1): 96 % of control
- residual activity at 1 µM, Mean (DAPK1): 91 % of control
- residual activity at 1 µM, Mean (DMPK): 101 % of control
- residual activity at 1 µM, Mean (EIF2AK2): 95 % of control
- residual activity at 1 µM, Mean (EPHA2): 93 % of control
- residual activity at 1 µM, Mean (EPHB3): 96 % of control
- residual activity at 1 µM, Mean (EPHB4): 95 % of control
- residual activity at 1 µM, Mean (FAK): 103 % of control
- residual activity at 1 µM, Mean (FGF-R1): 97 % of control
- residual activity at 1 µM, Mean (FRK): 94 % of control
- residual activity at 1 µM, Mean (GRK7): 103 % of control
- residual activity at 1 µM, Mean (MAPKAPK2): 85 % of control
- residual activity at 1 µM, Mean (MARK3): 100 % of control
- residual activity at 1 µM, Mean (MST2): 101 % of control
- residual activity at 1 µM, Mean (NEK11): 94 % of control
- residual activity at 1 µM, Mean (NEK7): 93 % of control
- residual activity at 1 µM, Mean (PDK1): 99 % of control
- residual activity at 1 µM, Mean (PIM3): 44 % of control
- residual activity at 1 µM, Mean (PKC-epsilon): 39 % of control
- residual activity at 1 µM, Mean (PKC-mu): 100 % of control
- residual activity at 1 µM, Mean (PRK1): 94 % of control
- residual activity at 1 µM, Mean (RET): 89 % of control
- residual activity at 1 µM, Mean (SNK): 92 % of control
- residual activity at 1 µM, Mean (SRMS): 92 % of control
- residual activity at 1 µM, Mean (SRPK1): 111 % of control
- residual activity at 1 µM, Mean (STK25): 96 % of control
- residual activity at 1 µM, Mean (STK39): 85 % of control
- residual activity at 1 µM, Mean (TGFB-R2): 83 % of control
- residual activity at 1 µM, Mean (TSSK1): 85 % of control
- residual activity at 1 µM, Mean (TXK): 94 % of control
- residual activity at 1 µM, Mean (WNK1): 98 % of control
- residual activity at 1 µM, Mean (ZAP70): 97 % of control
Compound: COc1ccc2c3ccnc(Cl)c3n(CC#N)c2c1 [AnnH75]
